Experiment [1] has as its target T1, Protein arginine N-methyltransferase 1 (Homo sapiens, UniProt Q99873). Kind of experiment: Inhibition of PRMT1 (unknown origin) using biotinylated histone H4-derived peptide as substrate at 50 uM after 60 mins by AlphaLISA assay. (In general: Alpha assays give light when donor and acceptor beads are brought close together.)
Target sequence in this assay (Q99873 whole entry, looked up): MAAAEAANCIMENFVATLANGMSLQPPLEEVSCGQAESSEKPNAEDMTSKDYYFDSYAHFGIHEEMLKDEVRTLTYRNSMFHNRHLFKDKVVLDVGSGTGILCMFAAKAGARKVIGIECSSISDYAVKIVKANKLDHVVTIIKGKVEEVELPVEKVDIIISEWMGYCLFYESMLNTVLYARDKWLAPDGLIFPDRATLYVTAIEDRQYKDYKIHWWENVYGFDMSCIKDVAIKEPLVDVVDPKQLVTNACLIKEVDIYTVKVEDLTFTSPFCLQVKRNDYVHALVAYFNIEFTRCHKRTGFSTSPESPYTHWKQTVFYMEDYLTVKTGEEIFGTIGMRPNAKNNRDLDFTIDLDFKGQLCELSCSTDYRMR
Experiment [2] in a line: Cytotoxicity against human DLD1 cells by MTT assay. It is filed as functional, cell-based. As to conditions: DLD-1. On the technique in general: Formazan colour is commonly taken as a measure of viable cells.
Experiment [3] is described as follows: Cytotoxicity against human T24 cells by MTT assay. The following applies: T-24. It is filed as functional, cell-based.
Experiment [4] deals with SH-SY5Y. In words: Cytotoxicity against human SH-SY5Y cells by MTT assay. It is filed as functional, cell-based.
The subject of experiment [5] is A-375. Kind of experiment: Cytotoxicity against human A375 cells by MTT assay. It is filed as functional, cell-based.
Experiment [6] concerns MCF7. In words: Cytotoxicity against human MCF7 cells by MTT assay. It counts as functional, cell-based.
Experiment [7] can be described thus: Cytotoxicity against human UM-UC-3 cells by MTT assay. The following applies: UMUC3. It counts as functional, cell-based.
Experiment [8] addresses T1, Protein arginine N-methyltransferase 1. Kind of experiment: Inhibition of PRMT1 (unknown origin) using biotinylated histone H4-derived peptide as substrate after 60 mins by AlphaLISA assay.
Target sequence in this assay (Q99873 whole entry): as the sequence (Q99873 whole entry, looked up) above
For experiment [9], the target named is T2, Histone-arginine methyltransferase CARM1 (Homo sapiens, UniProt Q86X55).
T2 sequence (Q86X55 whole entry): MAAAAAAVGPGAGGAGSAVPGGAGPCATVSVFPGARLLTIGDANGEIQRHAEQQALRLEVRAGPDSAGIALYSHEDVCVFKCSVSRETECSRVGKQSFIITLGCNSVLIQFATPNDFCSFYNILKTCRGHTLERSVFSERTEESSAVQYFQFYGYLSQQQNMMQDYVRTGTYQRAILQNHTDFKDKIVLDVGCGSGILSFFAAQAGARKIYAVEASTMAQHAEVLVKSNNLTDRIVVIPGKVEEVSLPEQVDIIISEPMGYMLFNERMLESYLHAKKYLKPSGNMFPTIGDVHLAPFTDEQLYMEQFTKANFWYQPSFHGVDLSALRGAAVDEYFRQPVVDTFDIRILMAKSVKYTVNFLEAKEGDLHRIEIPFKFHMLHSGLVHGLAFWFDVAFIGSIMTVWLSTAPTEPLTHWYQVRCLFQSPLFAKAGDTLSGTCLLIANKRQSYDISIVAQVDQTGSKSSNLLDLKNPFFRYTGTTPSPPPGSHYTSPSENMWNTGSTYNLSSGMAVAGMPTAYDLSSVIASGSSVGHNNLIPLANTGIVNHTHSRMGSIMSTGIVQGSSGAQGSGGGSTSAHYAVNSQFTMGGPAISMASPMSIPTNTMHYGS
In words: Inhibition of PRMT4 (unknown origin) using biotinylated histone H4-derived peptide as substrate after 60 mins by AlphaLISA assay.

The target in experiment [10] is Protein arginine N-methyltransferase 5 (Homo sapiens, UniProt O14744). In words: Inhibition of PRMT5 (unknown origin) using biotinylated histone H4-derived peptide as substrate after 60 mins by AlphaLISA assay.
Sequence of Protein arginine N-methyltransferase 5 (O14744 whole entry): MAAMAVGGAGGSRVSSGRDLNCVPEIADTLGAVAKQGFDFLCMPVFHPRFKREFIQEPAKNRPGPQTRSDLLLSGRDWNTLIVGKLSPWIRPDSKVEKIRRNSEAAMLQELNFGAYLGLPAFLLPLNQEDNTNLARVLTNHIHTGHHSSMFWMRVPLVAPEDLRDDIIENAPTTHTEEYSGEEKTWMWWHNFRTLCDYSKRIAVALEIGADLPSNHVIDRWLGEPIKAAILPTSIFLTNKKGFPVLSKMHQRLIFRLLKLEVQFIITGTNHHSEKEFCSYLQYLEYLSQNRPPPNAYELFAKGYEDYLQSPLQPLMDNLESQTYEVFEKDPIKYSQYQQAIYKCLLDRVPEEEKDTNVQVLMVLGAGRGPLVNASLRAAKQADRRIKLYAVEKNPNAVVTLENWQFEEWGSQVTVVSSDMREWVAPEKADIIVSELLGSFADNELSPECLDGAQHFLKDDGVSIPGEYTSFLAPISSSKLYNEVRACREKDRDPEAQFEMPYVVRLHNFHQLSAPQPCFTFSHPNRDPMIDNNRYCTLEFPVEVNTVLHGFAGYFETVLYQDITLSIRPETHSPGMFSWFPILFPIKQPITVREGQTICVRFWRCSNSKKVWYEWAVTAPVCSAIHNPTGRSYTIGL
The target of experiment [11] is Protein arginine N-methyltransferase 6 (Homo sapiens, UniProt Q96LA8). In words: Inhibition of PRMT6 (unknown origin) using biotinylated histone H4-derived peptide as substrate after 60 mins by AlphaLISA assay.
Sequence of Protein arginine N-methyltransferase 6 (Q96LA8 whole entry): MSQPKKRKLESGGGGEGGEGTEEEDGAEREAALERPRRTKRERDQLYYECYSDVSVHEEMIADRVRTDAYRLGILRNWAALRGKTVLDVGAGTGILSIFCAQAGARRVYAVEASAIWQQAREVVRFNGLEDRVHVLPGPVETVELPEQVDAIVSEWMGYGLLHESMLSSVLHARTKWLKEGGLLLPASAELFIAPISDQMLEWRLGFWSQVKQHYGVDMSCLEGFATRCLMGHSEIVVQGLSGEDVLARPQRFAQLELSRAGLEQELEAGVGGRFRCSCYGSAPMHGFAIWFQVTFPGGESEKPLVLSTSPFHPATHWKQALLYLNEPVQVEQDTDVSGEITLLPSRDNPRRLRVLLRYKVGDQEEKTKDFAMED
In experiment [12] the target is T1, Protein arginine N-methyltransferase 1. Kind of experiment: Inhibition of PRMT1 in human DLD1 cells assessed as reduction of asymmetric dimethylation of histone H4R3 level at 3 uM by Western blotting. It is filed as cell-based. As to conditions: DLD-1. A general note: A western blot detects proteins with antibodies after separation by electrophoresis.
Target sequence in this assay (Q99873 whole entry, looked up): as the sequence (Q99873 whole entry, looked up) above
For experiment [13] the target is unchanged. In words: Inhibition of PRMT1 in human DLD1 cells assessed as effect on symmetric dimethylation of histone H3R8 level at 1 to 30 uM by Western blotting. It is filed as cell-based. The following applies: DLD-1.
Target sequence in this assay (Q99873 whole entry, looked up): as above
Experiment [14] shares this target. In words: Non-competitive inhibition of PRMT1 (unknown origin) using biotinylated histone H4-derived peptide as substrate by Michaelis-Menten kinetic equation analysis.
Target sequence in this assay (Q99873 whole entry): as the sequence (Q99873 whole entry, looked up) above

Usually inhibition stands for how much of the control response was suppressed. One may read the IC50 as the concentration needed to halve the response being measured. High values mean lower potency, low ones higher potency. As usually defined, the Ki is the dissociation constant of the complex between target and ligand, obtained from inhibition or displacement. High values mean a looser hold on the target, low ones a stronger hold on the target.

Molecules are shown by their SMILES. Calls of active or inactive are those of the source. The rule behind the calls is not given here.

For `N=C(N)c1ccc(Nc2ncnc(Nc3ccccc3)c2[N+](=O)[O-])cc1`, the inhibition in [1] was 9%.

With `O=C(Nc1ccc2c(O)cc(S(=O)(=O)O)cc2c1)Nc1ccc2c(O)cc(S(=O)(=O)O)cc2c1`, the IC50 in [2], in experiment [3], in experiment [4], in experiment [5], in experiment [6] and in experiment [7] was more than 100 µM in each case.

As for `N=C(N)c1ccc(Nc2ncnc(Nc3ccc(C(N)=O)cc3)c2[N+](=O)[O-])cc1`, the concentration for half-maximal inhibition (IC50) in experiment [8] is 9.3 µM.

The compound `N=C(N)c1ccc(Nc2ncnc(Nc3ccc(N)cc3)c2[N+](=O)[O-])cc1` returned an inhibition in experiment [1] of 28%.

On to `N=C(N)c1ccc(Nc2ncnc(Nc3ccc(S(N)(=O)=O)cc3)c2[N+](=O)[O-])cc1`, for which the inhibition in experiment [1] was determined as 28%. Further, the IC50 is 8.5 µM in experiment [2]; 86.8 µM in [3]; 92.4 µM in [4]; more than 100 µM in experiment [5]; more than 100 µM in [6]; 84.6 µM in [7].

As for `N#Cc1ccc(Nc2ncnc(Nc3ccc(C(=N)N)cc3)c2[N+](=O)[O-])cc1`, the IC50 in experiment [8] was 2 µM; in experiment [9] it was 10 µM; in experiment [10], more than 100 µM; in experiment [11], more than 100 µM; in [2], 4.4 µM; in experiment [3] it was 13.1 µM. In addition, the IC50 in experiment [4] is 11.4 µM; in [5] it was more than 100 µM; in experiment [6], 50.6 µM; in [7] it was 45.4 µM. Besides, the inhibition result in [12] was “Active”. Also, the inhibition entry in [13] was “inactive”. In [14], this compound had a Ki of 1700 nM.

In turn, `N=C(N)c1ccc(Nc2ncnc(NCC(N)=O)c2[N+](=O)[O-])cc1` showed an inhibition in [1] of 49%.

`COc1cc(Nc2ncnc(Nc3ccc(C(=N)N)cc3)c2[N+](=O)[O-])cc(OC)c1OC`: the inhibition in experiment [1] stood at 44%. Also, the IC50 in experiment [2] amounted to 83.8 µM; in [3], 18.3 µM; in experiment [4], 16.2 µM; in [5], 87.6 µM; in experiment [6], 58.7 µM; in experiment [7] it was 65.4 µM.

Source of the values: ChEMBL document CHEMBL3632463, “Discovery and structure-activity analysis of 4-((5-nitropyrimidin-4-yl)amino)benzimidamide derivatives as novel protein arginine methyltransferase 1 (PRMT1) inhibitors” (Bioorg Med Chem Lett, 2015).
